One may read the ΔTm as the change in melting temperature against a reference sample. What is called Ki is the equilibrium dissociation constant of an inhibitor or competing ligand from its target. Usually Kd stands for a measure of binding affinity in units of concentration.

Each structure is given as a SMILES string. Calls of active or inactive are those of the source. The calls are words filed in the database; no cut-off is given here. Bounds are passed on as bounds.

16 molecules from ChEMBL document CHEMBL6177957, “Macrocyclic dihydropyridine analogs as pan-BET BD2-preferred inhibitors” (Eur J Med Chem, 2025) can be followed below.

One assay has as its system MM1.S. Kind of assay: Downregulation of c-MYC expression in human MM1.S cells measured after 6 hrs by Western blotting analysis. The class given is functional, cell-based. The following applies: dose 0.1-10 µM.
Assay [1] deals with T1, Bromodomain testis-specific protein (Homo sapiens, UniProt Q58F21). The following applies: dose 100.0 µM, time 30.0 min.
Assay [2] addresses T1, Bromodomain testis-specific protein. The following applies: dose 100.0 µM, time 30.0 min. The source holds these as a separate data set.
The target is the same in assay [3]. Kind of assay: Binding affinity to N-terminal hexa histidine-tagged human BRDT BD1 extracted from Escherichia coli BL21 (DE3) cells assessed as inhibition constant incubated for 1 hrs by fluorescence polarization assay. A general note: Fluorescence polarisation rises when a labelled molecule tumbles more slowly, as on binding a larger partner.
For assay [4] the target is unchanged. Kind of assay: Binding affinity to BRDT BD2 (unknown origin) at W293 residue.
Assay [5] has as its target T2, Bromodomain-containing protein 4 (Homo sapiens, UniProt O60885). Kind of assay: Binding affinity to N-terminal hexa histidine-tagged human BRD4 BD1 extracted from Escherichia coli BL21 (DE3) cells assessed as inhibition constant incubated for 1 hrs by fluorescence polarization assay.
Assay [6] deals with T1, Bromodomain testis-specific protein. Kind of assay: Binding affinity to BRDT BD1 (unknown origin) assessed as dissociation constant by BROMOscan analysis.
Assay [7] concerns the target T2, Bromodomain-containing protein 4. Kind of assay: Binding affinity to BRD4 BD1 (unknown origin) assessed as dissociation constant by BROMOscan analysis.
In assay [8] the target is T1, Bromodomain testis-specific protein. Kind of assay: Binding affinity to BRDT BD2 (unknown origin) assessed as dissociation constant by BROMOscan analysis.
The target in assay [9] is T2, Bromodomain-containing protein 4. Kind of assay: Binding affinity to BRD4 BD2 (unknown origin) assessed as dissociation constant by BROMOscan analysis.

Turning to `CCn1c2c(c(=O)[nH]c1=O)C1C(=C(C)N2)C(=O)OCc2ccccc2OCCOc2cc(C)ccc21` (stereo not drawn), the Activity entry in the assay with MM1.S is “Dose-dependent-effect”. The ΔTm in [1] is 3.4 °C; in assay [2] it was 8.9 °C.
In the case of `CCn1c2c(c(=O)[nH]c1=O)C1C(=C(C)N2)C(=O)OCc2ccccc2OCCCCOc2ccccc21` (stereo not drawn), the Ki in assay [3] turned out to be 1.9 µM.
As for `CCn1c2c(c(=O)[nH]c1=O)C1C(=C(C)N2)C(=O)OCc2ccccc2OCCCOc2ccccc21` (stereo not drawn), the inhibitory constant (Ki) in assay [3] is 1.1 µM. Moreover, in assay [4], the outcome was Active. The results for the ΔTm in assay [1] and in assay [2] were 2.8 °C and 13 °C, respectively.
As to `CCn1c2c(c(=O)[nH]c1=O)C1C(=C(C)N2)C(=O)OCc2ccccc2OCCOc2cc1ccc2C` (stereo not drawn), in assay [3], the Ki is more than 3.8 µM.
In the case of `CCn1c2c(c(=O)[nH]c1=O)C1C(=C(C)N2)C(=O)OCc2ccccc2OCCOc2ccccc21` (stereo not drawn), the Ki in assay [3] is 5.3 µM.
Still for that read-out and setting: with `CCn1c2c(c(=O)[nH]c1=O)C1C(=C(C)N2)C(=O)OCc2ccccc2OCCOc2cccc1c2` (stereo not drawn) the figure was more than 3.8 µM; with `CCn1c2c(c(=O)[nH]c1=O)C1C(=C(C)N2)C(=O)OCCCOc2cc(C)ccc21` (stereo not drawn), 8.1 µM.
As for `CCn1c2c(c(=O)[nH]c1=O)C1C(=C(C)N2)C(=O)OCc2cccc(c2)OCCCOc2cc1ccc2C` (stereo not drawn), the values for the Ki in assay [3] and in assay [5] were more than 3.8 µM and more than 3800 nM, respectively.
Regarding `Cc1sc2c(c1C)C(c1ccc(Cl)cc1)=N[C@@H](CC(=O)OC(C)(C)C)c1nnc(C)n1-2`, the Activity entry with MM1.S is “Dose-dependent-effect”.
With `CCn1c2c(c(=O)[nH]c1=O)C1C(=C(C)N2)C(=O)OCCCCOc2ccccc21` (stereo not drawn), the Ki in assay [3] is 11 µM.
Consider `CCn1c2c(c(=O)[nH]c1=O)C1C(=C(C)N2)C(=O)NCc2ccccc2OCCCOc2ccccc21` (stereo not drawn), for which the Ki in assay [3] is more than 3.8 µM; in assay [5] it was more than 3800 nM.
With `CCn1c2c(c(=O)[nH]c1=O)C(c1ccc(C)cc1)C(C(=O)OCc1ccccc1)=C(C)N2` (stereo not drawn), the Ki in [3] worked out at 0.04 µM; in assay [5], 150 nM. Also, the Kd in assay [6] came out at 770 nM; in assay [7], 380 nM; in [8], 67 nM; in assay [9], 65 nM.
In the case of `CCn1c2c(c(=O)[nH]c1=O)C1C(=C(C)N2)C(=O)OCCCOc2ccccc21` (stereo not drawn), the Ki in assay [3] came out at 9.2 µM.
As for `CCn1c2c(c(=O)[nH]c1=O)C1C(=C(C)N2)C(=O)OCCCCOc2cc(C)ccc21` (stereo not drawn), the Ki in assay [3] was 1.7 µM.
Take `CCn1c2c(c(=O)[nH]c1=O)C1C(=C(C)N2)C(=O)OCc2ccccc2OCCCOc2cc1ccc2C` (stereo not drawn): the Ki in assay [3] was 12 µM.
Same read-out and setting: with `CCn1c2c(c(=O)[nH]c1=O)C1C(=C(C)N2)C(=O)OCc2ccccc2OCCCOc2cc(C)ccc21` (stereo not drawn) the figure was 1.3 µM.
